Measured values published in patent publication US20120274239A1, “METHOD OF MANUFACTURING ORGANIC ELECTROLUMINESCENCE DISPLAY DEVICE AND ELECTRONIC EQUIPMENT INCLUDING ORGANIC ELECTROLUMINESCENCE DISPLAY DEVICE MANUFACTURED BY THE MANUFACTURING METHOD” (CANON KABUSHIKI KAISHA, priority 2011, published 2012).
Each block holds one compound with its values, some of them ahead of it.

Experiments:
[1] = solubility in the IPA/water mixed solvent (FIG. 4); type: physicochemical; details: IPA/water mixed solvent having an IPA concentration of 80 wt %
From the text: The solubility of a compound as a constituent material for each layer in the IPA/water mixed solvent varies depending on the weight ratio of IPA in the mixed solvent. FIG. 4 is a graph illustrating the solubilities of the compound 1 (condensed polycyclic hydrocarbon compound) and the compound A2 (heterocyclic compound) in the IPA/water mixed solvent (polar solvent). Here, in the graph of FIG. 4, the axis of abscissa indicates the weight percent concentration of IPA in the IPA/water mixed solvent, and the axis of ordinate indicates the amount of the condensed polycyclic hydrocarbon compound or heterocyclic compound to dissolve in 1 g of the solvent.

[2] = etching rate (dissolution rate) of a deposited layer in the IPA/water mixed solvent; type: physicochemical; details: IPA 60 wt %; for etching rate: layer of the compound, polar solvent: IPA/water mixed solvent
From the text: In the present invention, a larger etching rate means a higher dissolution rate. In addition, a larger etching rate means a higher solubility of a layer having a material of interest in the solvent (polar solvent).
FIG. 3 is a graph illustrating thickness changes in the compound 1 and the compound A2 over an etching time. Here, FIG. 3 illustrates the results of the etching of the respective layers when a mixed solvent obtained by mixing isopropyl alcohol (IPA) and water so that IPA may account for 60 wt % (hereinafter, sometimes referred to as “IPA/water mixed solvent”) is used as a polar solvent.
On the other hand, the thickness of a layer (layer B) formed of the compound A2 as a heterocyclic compound reduces over time. When the etching rates of the respective layers are calculated with their etching conditions made identical to each other, the etching rate of the layer A is 0.008 nm/sec but the etching rate of the layer B is 0.87 nm/sec, that is, a ratio of the latter to the former is about 100.
Here, a ratio (n) between the etching rates of the uppermost layer (layer A) of the organic compound layer and the lowermost layer (layer B) of the release layer by the polar solvent used upon removal of the release layer under the same temperature conditions can be represented like the following equation.
Next, the photosensitive resin layer 41 was removed by performing dry etching with oxygen as a reactant gas under the conditions of a flow rate of 20 sccm, a pressure of 8 Pa, and an output of 150 W (FIG. 2L). Next, the release layer 30 was removed with a mixed solvent obtained by mixing water and IPA so that an IPA concentration was 60 wt % (FIG. 2M). It should be noted that as the etching rate of the compound (phenanthroline derivative represented by the formula (2)) constituting the release layer 30 in this example was 0.9 nm/sec, the release layer 30 was removed through immersion in the mixed solvent for 600 seconds. Next, vacuum heating was performed at 80° C. so that the solvent remaining on the organic compound layer was removed. It should be noted that the etching rate of the compound represented by the formula (1) serving as the uppermost layer of the organic compound layer placed in each sub-pixel for the polar solvent used for removing the release layer is about 0.0045 nm/sec, which is sufficiently small as compared with the etching rate of the release layer 30.

Compound: CC(C)(C)c1cc2ccc3ccc(B4OC(C)(C)C(C)(C)O4)c4ccc(c1)c2c34 [compound D8]
- etching rate [2]: 3.0 nm/s

Compound: CC1(C)c2cc(-c3ccc4ccc5cccc6ccc3c4c56)ccc2-c2ccc(-c3ccc4ccc5cccc6ccc3c4c56)cc21 [compound 1]
- amount to dissolve in 1 g of the solvent [1]: 5 µg
- etching rate [2]: 0.008 nm/s
- etching rate ([2]; listed as formula (1)): about 0.0045 nm/sec

Compound: c1ccc(-c2cc(-c3ccccc3)cc(-c3cccc(-c4cccc(-c5ccc6c7ccccc7c7ccccc7c6c5)c4)c3)c2)cc1 [compound B1]
- etching rate [2]: 1.3 nm/s

Continued, values first:

- amount to dissolve in 1 g of the solvent [1]: 73 µg
- etching rate ratio (n) of layer B (release layer) to layer A (uppermost organic compound layer) ([2]; compound A2 layer versus compound 1 layer, IPA/water mixed solvent, identical etching conditions): about 100
- etching rate [2]: 0.87 nm/s
- etching rate ([2]; listed as formula (2)): 0.9 nm/s
Compound: CC1(C)c2ccccc2-c2ccc(-c3ccc4ccc5ccc(-c6ccc7c(c6)C(C)(C)c6ccccc6-7)nc5c4n3)cc21 [compound A2]

- etching rate [2]: 1.5 nm/s
Compound: O=C1c2ccccc2OC2C=CC(c3cccc(-c4cccc(-c5cc(-c6cccc(-c7ccccc7)c6)cc(-c6cccc(-c7ccccc7)c6)c5)c4)c3)=CC12 (stereo not drawn) [compound Cl]

- etching rate [2]: 2.5 nm/s
Compound: O=S(=O)(Oc1ccc2cc(-c3ccc4ccccc4c3)ccc2c1)C(F)(F)F [compound D6]

- etching rate [2]: 1.6 nm/s
Compound: c1ccc(-n2c(-c3cc(-c4nc5ccccc5n4-c4ccccc4)cc(-c4nc5ccccc5n4-c4ccccc4)c3)nc3ccccc32)cc1 [compound A7]
